# Laboratory results reported in patent US8791113B2, “2,4-diaryl-substituted [1,8] naphthyridines as kinase inhibitors for use against cancer” (Merck Patent GmbH, priority 2010, dated 2014).
# Assays:
# [1] = biological target: T1, GST-ALK5 (TGF-beta receptor kinase) (Homo sapiens, UniProt P36897); test: In-vitro (enzyme) kinase flashplate assay: GST-ALK5 phosphorylation of GST-SMAD2 with 33P-ATP; type: biochemical; conditions: 384-well flashplate kinase assay, GST-ALK5 / GST-SMAD2, 33P-ATP, 30° C., 45 min; read-out: TβR activity (Example 50)
# T1 sequence (P36897 34-503): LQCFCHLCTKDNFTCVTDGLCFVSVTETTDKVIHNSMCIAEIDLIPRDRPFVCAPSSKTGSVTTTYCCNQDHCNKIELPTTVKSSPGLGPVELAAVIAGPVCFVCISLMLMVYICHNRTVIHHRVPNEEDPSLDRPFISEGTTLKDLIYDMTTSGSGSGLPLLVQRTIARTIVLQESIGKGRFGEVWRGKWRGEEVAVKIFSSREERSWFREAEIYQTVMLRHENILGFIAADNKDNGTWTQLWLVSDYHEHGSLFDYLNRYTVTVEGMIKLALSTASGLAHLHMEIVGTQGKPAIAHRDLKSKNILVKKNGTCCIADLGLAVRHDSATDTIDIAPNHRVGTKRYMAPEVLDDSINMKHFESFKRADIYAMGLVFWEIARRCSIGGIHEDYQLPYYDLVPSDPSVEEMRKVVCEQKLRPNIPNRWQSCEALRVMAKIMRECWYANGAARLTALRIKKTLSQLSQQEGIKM
# Method: In-vitro (Enzyme) Assay for Determination of the Efficacy of Inhibitors of the Inhibition of TGF-Beta-Mediated Effects
# The kinase assay was carried out as 384-well flashplate assay. 31.2 nM of GST-ALK5, 439 nM of GST-SMAD2 and 3 mM of ATP (with 0.3 μCi of ^33P-ATP/well) were incubated in a total volume of 35 μl (20 mM of HEPES, 10 mM of MgCl2, 5 mM of MnCl2, 1 mM of DTT, 0.1% of BSA, pH 7.4) without or with test substance (5-10 concentrations) at 30° C. for 45 min. The reaction was stopped using 25 μl of 200 mM EDTA solution, filtered with suction at room temperature after 30 min, and the wells were washed with 3 times 100 μl of 0.9% NaCl solution. Radioactivity was measured in the TopCount. The IC50 values were calculated using RS1.
# [2] = system: TGF-beta-induced phosphorylation of Smad2 (Ser465/467) and Smad3 (Ser423/425) in Mv1-Lu cells; test: Inhibition of Smad2/3 phosphorylation in Mv1Lu cells (PathScan Phospho-Smad2 ELISA); type: cell-based, mink Mustela vison; conditions: Neogale vison, Mv1-Lu cells, TGF-beta 1 5 ng/ml, Phospho-Smad2/3 ELISA, read-out: TβR activity (Example 51)
# Method: Inhibition of Smad2/3 Phosphorylation in Mv1 Lu Cells by TGF-Beta Receptor I Kinase Inhibitors
# This assay was used to determine the inhibitory potency of compounds on TGF-beta-induced phosphorylation of Smad2 (Ser465/467) and Smad3 (Ser423/425). Mv1-Lu cells (lung epithelial cell line from mink Mustela vison; ATCC number: CCL-64) were seeded in DMEM (Invitrogen) supplemented with 10% fetal bovine serum (Pan Biotech) at a defined cell density in 24-well or 96-well plates (24-well plate: 1.5×10^5 cells per well; 96-well plate: 4×10^4 cells per well). Cell cultures were incubated in DMEM at 37° C. and 10% CO2. On the next day, the medium was replaced and cells were serum-starved for 16-20 hours. The following day, serial dilutions of compounds were added to the wells, pre-incubated for 1.5 hrs before recombinant TGF-beta 1 ligand (final concentration 5 ng/ml; R&D systems) was added. After one hour of ligand stimulation, lysates were prepared and analyzed using an enzyme-linked immunosorbent assay kit (PathScan Phospho-Smad2 Kit, Cell Signaling Technologies). The ELISA detects phosphorylated Smad2 as well as phosphorylated Smad3 with the phospho-specific antibody. TGF-beta stimulated cells and unstimulated cells served as positive and negative controls (100% and background control). The concentration of the vehicle DMSO was kept constant at 0.2% (v/v) in all wells. Dose-response relationships were fitted using curve fitting algorithms of the RS1 statistics software package (Brooks Automation Inc. RS/1- Statistical Tools Handbook. Release 6.2) to determine the concentration at which half-maximal inhibition (IC50) of Smad2/3 phosphorylation was achieved.
Compound,IC50 [1] [nM],IC50 [2] [nM]
"COc1nnc(-c2cc(-c3ccccc3F)nc3ncccc23)c2ccncc12 [Compound 32, 1-[2-(2-Fluoro-phenyl)-[1,8]naphthyridin-4-yl]-4-methoxy-pyrido[3,4-d]pyridazine]",< 1000,> 10000
"CN(C)CCOc1ccc(-c2cc(-c3cc(Cl)ccc3F)nc3ncccc23)c2ccncc12 [Compound 82, (2-{5-[2-(5-Chloro-2-fluoro-phenyl)-[1,8]naphthyridin-4-yl]-isoquinolin-8-yloxy}-ethyl)-dimethyl-amine]",< 1000,< 1000
"Nc1nccc2c(-c3cc(-c4ccccc4F)nc4ncccc34)nccc12 [Compound 14, 5-[2-(2-Fluoro-phenyl)-[1,8]naphthyridin-4-yl]-[2,6]naphthyridin-1-ylamine]",< 1000,< 1000
"Nc1ncnc2c(-c3cc(-c4ccccc4F)nc4ncccc34)nccc12 [Compound 36, 8-[2-(2-Fluoro-phenyl)-[1,8]naphthyridin-4-yl]-pyrido[3,4-d]pyrimidin-4-ylamine]",–,> 10000
"O=c1c2cnccc2c(-c2cc(-c3cc(Cl)ccc3F)nc3ncccc23)cn1CCN1CCOCC1 [Compound 76, 4-[2-(5-Chloro-2-fluoro-phenyl)-[1,8]naphthyridin-4-yl]-2-(2-morpholin-4-yl-ethyl)-2H-[2,7]naphthyridin-1-one]",1000 to 10000,1000 to 10000
"Fc1ccc(Cl)cc1-c1cc(-c2ccc(OCCN3CCCC3)c3cnccc23)c2cccnc2n1 [Compound 102, 2-(5-Chloro-2-fluoro-phenyl)-4-[8-(2-pyrrolidin-1-yl-ethoxy)-isoquinolin-5-yl]-[1,8]naphthyridine]",< 1000,< 1000
"Fc1ccc(C(F)(F)F)cc1-c1cc(-c2c[nH]c3cnccc23)c2cccnc2n1 [Compound 3, 2-(2-Fluoro-5-trifluoromethyl-phenyl)-4-(1H-pyrrolo[2,3-c]pyridin-3-yl)-[1,8]naphthyridine]",< 1000,< 1000
"Fc1ccc(Cl)cc1-c1cc(-c2cnc(OCCN3CCCC3)c3cnccc23)c2cccnc2n1 [Compound 100, 2-(5-Chloro-2-fluoro-phenyl)-4-[1-(2-pyrrolidin-1-yl-ethoxy)-[2,7]naphthyridin-4-yl]-[1,8]naphthyridine]",< 1000,< 1000
"Cc1occc1-c1cc(-c2c[nH]c3cnccc23)c2cccnc2n1 [Compound 108, 2-(2-Methyl-furan-3-yl)-4-(1H-pyrrolo[2,3-c]pyridin-3-yl)-[1,8]naphthyridine]",< 1000,< 1000
"Fc1ccccc1-c1cc(-c2ncnc3cnccc23)c2cccnc2n1 [Compound 18, 4-[2-(2-Fluoro-phenyl)-[1,8]naphthyridin-4-yl]-pyrido[3,4-d]pyrimidine]",1000 to 10000,> 10000
"Nc1ccc2cnccc2c1-c1cc(-c2ccccc2F)nc2ncccc12 [Compound 62, 5-[2-(2-Fluoro-phenyl)-[1,8]naphthyridin-4-yl]-isoquinolin-6-ylamine]",< 1000,1000 to 10000
"CCN(CC)CCn1cc(-c2cc(-c3cc(Cl)ccc3F)nc3ncccc23)c2ccncc2c1=O [Compound 104, 4-[2-(5-Chloro-2-fluoro-phenyl)-[1,8]naphthyridin-4-yl]-2-(2-diethylamino-ethyl)-2H-[2,7]naphthyridin-1-one]",1000 to 10000,1000 to 10000
"Nc1ccc2c(-c3nccc4c(N)nccc34)cc(-c3ccccc3F)nc2n1 [Compound 114, 5-(5-Amino-[2,6]naphthyridin-1-yl)-7-(2-fluoro-phenyl)-[1,8]naphthyridin-2-ylamine]",< 1000,< 1000
"COc1ccc(-c2cc(-c3ccccc3F)nc3ncccc23)c2ccncc12 [Compound 17, 2-(2-Fluoro-phenyl)-4-(8-methoxy-isoquinolin-5-yl)-[1,8]naphthyridine]",< 1000,< 1000
"Nc1nccc2c(-c3cc(-c4cc(Cl)ccc4F)nc4ncccc34)nccc12 [Compound 11, 5-[2-(5-Chloro-2-fluoro-phenyl)-[1,8]naphthyridin-4-yl]-[2,6]naphthyridin-1-ylamine]",< 1000,< 1000
"Nc1nccc2c(-c3cc(-c4ccccc4F)nc4ncccc34)ccc(OCCO)c12 [Compound 79, 2-{1-Amino-5-[2-(2-fluoro-phenyl)-[1,8]naphthyridin-4-yl]-isoquinolin-8-yloxy}-ethanol]",< 1000,< 1000
"O=c1c2cnccc2c(-c2cc(-c3ccccc3F)nc3ncccc23)cn1CCO [Compound 67, 4-[2-(2-Fluoro-phenyl)-[1,8]naphthyridin-4-yl]-2-(2-hydroxy-ethyl)-2H-[2,7]naphthyridin-1-one]",< 1000,1000 to 10000
"O=c1c2cnccc2c(-c2cc(-c3cc(Cl)ccc3F)nc3ncccc23)cn1CCO [Compound 68, 4-[2-(5-Chloro-2-fluoro-phenyl)-[1,8]naphthyridin-4-yl]-2-(2-hydroxy-ethyl)-2H-[2,7]naphthyridin-1-one]",< 1000,< 1000
"Nc1nccc2c(-c3cc(-c4ccccc4F)nc4ncccc34)cccc12 [Compound 9, 5-[2-(2-Fluoro-phenyl)-[1,8]naphthyridin-4-yl]-isoquinolin-1-ylamine]",< 1000,< 1000
"CC(=O)Nc1ccc2cnccc2c1-c1cc(-c2ccccc2F)nc2ncccc12 [Compound 85, N-{5-[2-(2-Fluoro-phenyl)-[1,8]naphthyridin-4-yl]-isoquinolin-6-yl}-acetamide]",1000 to 10000,> 10000
"Nc1ccc(-c2cc(-c3ccccc3F)nc3ncccc23)c2ccncc12 [Compound 41, 5-[2-(2-Fluoro-phenyl)-[1,8]naphthyridin-4-yl]-isoquinolin-8-ylamine]",–,< 1000
"Nc1nccc2c(-c3cc(-c4cc(Cl)ccc4F)nc4ncccc34)coc12 [Compound 13, 3-[2-(5-Chloro-2-fluoro-phenyl)-[1,8]naphthyridin-4-yl]-furo[2,3-c]pyridin-7-ylamine]",< 1000,< 1000
"O=[N+]([O-])c1ccc(-c2cc(-c3ccccc3F)nc3ncccc23)c2ccncc12 [Compound 16, 2-(2-Fluoro-phenyl)-4-(8-nitro-isoquinolin-5-yl)-[1,8]naphthyridine]",–,< 1000
"CC(=O)Nc1nccc2c(-c3cc(-c4ccccc4F)nc4ncccc34)nccc12 [Compound 69, N-{5-[2-(2-Fluoro-phenyl)-[1,8]naphthyridin-4-yl]-[2,6]naphthyridin-1-yl}-acetamide]",< 1000,–
"OCCOc1ccc(-c2cc(-c3ccccc3F)nc3ncccc23)c2ccncc12 [Compound 39, 2-{5-[2-(2-Fluoro-phenyl)-[1,8]naphthyridin-4-yl]-isoquinolin-8-yloxy}-ethanol]",–,< 1000
"Nc1ncnc2c(-c3cc(-c4ccccc4F)nc4ncccc34)cccc12 [Compound 15, 8-[2-(2-Fluoro-phenyl)-[1,8]naphthyridin-4-yl]-quinazolin-4-ylamine]",–,1000 to 10000
"COCCn1cc(-c2cc(-c3cc(Cl)ccc3F)nc3ncccc23)c2ccncc21 [Compound 5, 2-(5-Chloro-2-fluoro-phenyl)-4-[1-(2-methoxy-ethyl)-1H-pyrrolo[2,3-c]pyridin-3-yl]-[1,8]naphthyridine]",–,< 1000
"Nc1cc2c(-c3cc(-c4cc(Cl)ccc4F)nc4ncccc34)cccc2cn1 [Compound 49, 5-[2-(5-Chloro-2-fluoro-phenyl)-[1,8]naphthyridin-4-yl]-isoquinolin-3-ylamine]",–,> 10000
